Assay results as given in patent US8258134B2, “Pyridazinone glucokinase activators” (Hoffmann-La Roche Inc., priority 2008, dated 2012).

How the values were obtained:
[1] = system: Lean C57BL/6J mice; assay: Glucokinase activator in vivo screen, blood glucose in lean mice; details: Mus musculus, vs control at 4 hours post 50 mg/kg oral dose, two hour fast, read-out: % glucose lowering @ 4 H
Method: Glucokinase Activator in vivo Screen Protocol in Lean and Diet Induced Obese Mice: Lean or Diet-induced Obese (DIO) C57BL/6J mice were orally dosed via gavage with Glucokinase (GK) activator following a two hour fasting period. Blood glucose determinations were made at various (e.g. 0, 1, 2, 4 and 8 hours post-oral gavage) times during the study.
C57Bl/6J mice were obtained from Jackson Laboratory (Bar Harbor, Me.) and were maintained in a light-dark cycle with lights on from 0600-1800 hr. For studies in lean mice, the mice were received at age ten weeks and given ad libitum access to control diet (LabDiet 5001 chow, PMI Nutrition, Brentwood, Mo.), and were at least age 11 weeks at the time of study. For studies in the DIO model, the mice were received at age five weeks and given ad libitum access to Bio-Serv F3282 High Fat Diet (Frenchtown, N.J.), and were at least age 16 weeks at the time of study. The experiments were conducted during the light phase of the light-dark cycle. Mice (n=6) are weighed and fasted for a two hour period prior to oral treatment. GK activators are formulated in Gelucire vehicle (Ethanol:Gelucire44/14:PEG400q.s. 4:66:30 v/w/v. For studies in lean mice, the mice were dosed orally with 5.0 μL per gram of body weight (i.e. 5 ml/kg×10.0 mg/ml formulation to equal a 50 mg/kg dose). For studies in DIO mice, the mice were dosed orally with 5.0 μL per gram of body weight (i.e. 5.0 ml/kg×5 mg/ml formulation to equal a 25 mg/kg dose). Immediately prior to dosing, a pre-dose (time zero) blood glucose reading was acquired by snipping off a small portion of the animal's tail and collecting 15 μL blood into a heparinized capillary tube for analysis. Following GK activator administration, additional blood glucose readings were taken at various time points post dose from the same tail wound. Results were interpreted by comparing the mean blood glucose values of vehicle treated mice with GK activator treated mice over the study period.
The Table below provides data for % glucose lowering of a representative number of compounds of the present invention vs control at 4 hours post 50 mg/kg dose in lean C57BL/6J mice: […]

[2] = target: T1, Recombinant human liver GK1 (GST-GK) (Homo sapiens, UniProt P35557); assay: Glucokinase in vitro assay (G6PDH-coupled NADH generation, OD340); assay type: biochemical; details: 5 mM D-glucose, 30° C., pH 7.1, 10% DMSO
T1 construct: made in house; host or cells: E. coli
T1 sequence (P35557 1-466 isoform P35557-2): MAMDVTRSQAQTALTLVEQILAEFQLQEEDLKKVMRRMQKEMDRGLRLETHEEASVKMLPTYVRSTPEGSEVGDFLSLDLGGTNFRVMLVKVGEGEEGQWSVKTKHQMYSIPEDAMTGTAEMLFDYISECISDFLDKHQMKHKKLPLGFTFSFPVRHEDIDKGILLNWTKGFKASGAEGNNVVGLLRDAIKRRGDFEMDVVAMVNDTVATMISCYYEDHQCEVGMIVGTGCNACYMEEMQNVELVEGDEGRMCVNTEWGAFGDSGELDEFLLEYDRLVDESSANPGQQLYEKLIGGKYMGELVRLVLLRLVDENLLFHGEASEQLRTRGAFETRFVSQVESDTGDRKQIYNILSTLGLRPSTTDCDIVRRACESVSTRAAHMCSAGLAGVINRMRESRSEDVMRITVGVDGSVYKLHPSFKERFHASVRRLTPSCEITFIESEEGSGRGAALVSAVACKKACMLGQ
How it was run: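 Activation readout is SC1.5, the activator concentration raising GK rate (OD340/min) 50% above 10% DMSO controls. The coupled reaction used GST-GK1 from E. coli, 5 mM glucose, 1 mM ATP, 1.8 mM NAD and 25 mM Hepes pH 7.1 at 30° C. Enzyme was added after a 10 min compound pre-incubation.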

For `Cc1ccccc1Oc1cnn(C(CC2CCCC2)C(=O)Nc2ccn(CC(C)(C)O)n2)c(=O)c1` (stereo not shown) [Example 24, 3-Cyclopentyl-N-[1-(2-hydroxy-2-methyl-propyl)-1H-pyrazol-3-yl]-2-(6-oxo-4-o-tolyloxy-6H-pyridazin-1-yl)-propionamide], the change in vivo at 50 mg/kg [1] was -62.1% and the “SC1.5 average (concentration of activator that produced a 50% increase in the activity of GK)” value [2] was 0.174 µM.
For `CC(C)(O)Cn1ccc(NC(=O)C(CC2CCCC2)n2ncc(Oc3ccccc3C(F)(F)F)cc2=O)n1` (stereo not shown) [Example 11, 3-Cyclopentyl-N-[1-(2-hydroxy-2-methyl-propyl)-1H-pyrazol-3-yl]-2-[6-oxo-4-(2-trifluoromethyl-phenoxy)-6H-pyridazin-1-yl]-propionamide], the change in vivo at 50 mg/kg [1] was -48.9% and the “SC1.5 average (concentration of activator that produced a 50% increase in the activity of GK)” value [2] was 0.206 µM.
With `CC(C)(O)Cn1ccc(NC(=O)C(CC2CCCC2)n2ncc(OC3CCCC3)cc2=O)n1` (stereo not shown) [Example 8, 3-Cyclopentyl-2-(4-cyclopentyloxy-6-oxo-6H-pyridazin-1-yl)-N-[1-(2-hydroxy-2-methyl-propyl)-1H-pyrazol-3-yl]-propionamide] the change in vivo at 50 mg/kg [1] was -5.6% and the “SC1.5 average (concentration of activator that produced a 50% increase in the activity of GK)” value [2] was 1.323 µM.
With `CC(C)(O)Cn1ccc(NC(=O)C(CC2CCCC2)n2ncc(Oc3ccccc3C3CCCC3)cc2=O)n1` (stereo not shown) [Example 22, 3-Cyclopentyl-2-[4-(2-cyclopentyl-phenoxy)-6-oxo-6H-pyridazin-1-yl]-N-[1-(2-hydroxy-2-methyl-propyl)-1H-pyrazol-3-yl]-propionamide] the change in vivo at 50 mg/kg [1] was -31.6% and the “SC1.5 average (concentration of activator that produced a 50% increase in the activity of GK)” value [2] was 0.347 µM.
For `O=C(O)c1ccc(NC(=O)C(CC2CCCC2)n2ncc(Oc3ccccc3C3CCCC3)cc2=O)nc1` (stereo not shown) [Example 71, 6-{3-Cyclopentyl-2-[4-(2-cyclopentyl-phenoxy)-6-oxo-6H-pyridazin-1-yl]-propionylamino}-nicotinic acid], the change in vivo at 50 mg/kg [1] was -61.7% and the “SC1.5 average (concentration of activator that produced a 50% increase in the activity of GK)” value [2] was 0.312 µM.
With `CC(C)(O)Cn1ccc(NC(=O)C(CC2CCCC2)n2ncc(Oc3cc(F)ccc3F)cc2=O)n1` (stereo not shown) [Example 33, 3-Cyclopentyl-2-[4-(2,5-difluoro-phenoxy)-6-oxo-6H-pyridazin-1-yl]-N-[1-(2-hydroxy-2-methyl-propyl)-1H-pyrazol-3-yl]-propionamide] the change in vivo at 50 mg/kg [1] was -30.2% and the “SC1.5 average (concentration of activator that produced a 50% increase in the activity of GK)” value [2] was 0.356 µM.
For `O=C(Nc1ccn(C[C@H](O)CO)n1)[C@H](CC1CCCC1)n1ncc(Oc2c(F)cccc2F)cc1=O` [Example 65A, (S)-3-Cyclopentyl-2-[4-(2,6-difluoro-phenoxy)-6-oxo-6H-pyridazin-1-yl]-N-[1-((S)-2,3-dihydroxy-propyl)-1H-pyrazol-3-yl]-propionamide], the “SC1.5 average (concentration of activator that produced a 50% increase in the activity of GK)” value [2] was 0.049 µM.
With `CC(C)(O)Cn1ccc(NC(=O)[C@H](CC2CCOCC2)n2ncc(Oc3c(F)cccc3F)cc2=O)n1` [Example 43A, (S)-2-[4-(2,6-Difluoro-phenoxy)-6-oxo-6H-pyridazin-1-yl]-N-[1-(2-hydroxy-2-methyl-propyl)-1H-pyrazol-3-yl]-3-(tetrahydro-pyran-4-yl)-propionamide] the “SC1.5 average (concentration of activator that produced a 50% increase in the activity of GK)” value [2] was 0.148 µM.
In the case of `CC(C)CC(C(=O)Nc1ccn(C[C@@H](O)CO)n1)n1ncc(Oc2ccccc2Cl)cc1=O` (stereo partly drawn) [Example 137, 2-[4-(2-Chloro-phenoxy)-6-oxo-6H-pyridazin-1-yl]-4-methyl-pentanoic acid [1-((R)-2,3-dihydroxy-propyl)-1H-pyrazol-3-yl]-amide], the “SC1.5 average (concentration of activator that produced a 50% increase in the activity of GK)” value [2] is reported as 0.731 µM.
`O=C(O)c1ccc(NC(=O)[C@H](CC2CCCC2)n2ncc(Oc3ccccc3F)cc2=O)nc1` [Example 75A, 6-{(S)-3-Cyclopentyl-2-[4-(2-fluoro-phenoxy)-6-oxo-6H-pyridazin-1-yl]-propionylamino}-nicotinic acid] was tested, and the “SC1.5 average (concentration of activator that produced a 50% increase in the activity of GK)” value [2] was 0.033 µM.
